“Also recorded” adds a separate entry of the source.
Legend:
[1] = molecular target: T1, marmoset Type II GnRH receptor (Callithrix jacchus, UniProt Q95MG6); test: Inositol phosphate accumulation in αT4-II cells; type: cell-based; conditions: GnRH II 10 nM
T1 construct: expressed in transfected cells
T1 sequence (Q95MG6 1-380): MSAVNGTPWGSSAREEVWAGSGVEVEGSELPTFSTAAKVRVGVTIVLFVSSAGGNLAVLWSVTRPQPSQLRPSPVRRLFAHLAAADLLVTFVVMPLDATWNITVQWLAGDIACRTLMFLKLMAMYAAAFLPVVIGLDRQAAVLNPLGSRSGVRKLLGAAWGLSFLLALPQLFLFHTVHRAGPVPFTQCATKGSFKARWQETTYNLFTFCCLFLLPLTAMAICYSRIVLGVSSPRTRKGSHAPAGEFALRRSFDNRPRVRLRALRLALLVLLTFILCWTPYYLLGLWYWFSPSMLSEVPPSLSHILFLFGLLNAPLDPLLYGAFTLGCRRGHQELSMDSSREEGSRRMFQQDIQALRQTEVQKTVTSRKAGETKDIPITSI
Procedure: The histograms in panels a and b represent inositol phosphate accumulation data from HEK293 cells stably expressing the Type I GnRH receptor only (SCL60). […] In panels c and d, the liberated inositol phosphates generated were measured in the proto-gonadotrope cells (αT4) stably expressing the marmoset Type II GnRH receptor (designated αT4-II).
The ability of the four major agents under study at activating ectopically expressed Type I or Type II GnRHR were tested (FIG. 12). The classical signal transduction cascade activated by GnRHR stimulation is the Gαq-PLC-β cascade. Both Type I and II receptor can stimulate the Gαq-PLC type-G-protein and activate PLC-β which cleaves phosphatidylinositol bisphosphate (PIP2) into inositol trisphosphate (IP3), other lower inositol phosphates (IPn) and diacylglycerol (DAG). The major function of IP3 is to elevate intracellular Ca^2+ while DAG causes the activation of specific PKC (protein kinase C) isoforms.
Panels a and b of FIG. 12 depict the generation of free cytoplasmic ^3H-myo-inositols on the plasma membranes of HEK293 cells expressing the Type I GnRHR and of αT4 gonadotropes expressing the marmoset Type II GnRHR. Prior to agonist stimulation the respective cells were incubated in inositol-free growth media supplemented with 1 μCi/ml ^3H-myoinositol for 48 h. G protein coupled receptor (GPCR)-induced activation of PLC-β results in the cleavage of PIP2 (incorporating tritium ^3H) into free lower inositol phosphates (IPns).

[2] = test system: JEG-3 cells; test: Annexin V-FITC staining of extracellular phosphatidylserine (apoptosis) in JEG-3 cells; type: cell-based, human; conditions: for extracellular annexin-V-reactive phosphatidylserine: 100 nM
Procedure: All twelve panels depict either phase contrast (1, 4, 7, 10), confocal laser microscope (2, 5, 8, 11) or phase contrast/confocal merged images (3, 6, 9, 12). Panels 1 to 3 depict untreated control JEG-3 cells for cells in panels 4 to 6 which have been treated with GnRH I (100 nM) for 24 h. All cells have been exposed while live to an annexin V recombinant protein conjugated to the FITC fluorophore. The annexin V will bind specifically only to phosphatidlyserine (PS) lipids usually only expressed on the intracellular side of the plasma membrane lipid bilayer. An early sign of apoptosis is the translocation of these PS lipids from the intracellular side of the membrane to the outer aspect of the bilayer. […] Panels 10 to 12 depict cells exposed to GnRH I for 48 h while panels 7 to 9 serve as unstimulated contemporaneous controls. […] The cellular levels of caspase 3 and procaspase 3 were assessed by specific immunoblotting of JEG-3 or BPH-1 whole cell (w-c) lysates from cells stimulated continuously with GnRH I for the times depicted.
A similar experimental approach was employed for the transfer of this study to BPH-1 cells, however as the MAPK under study in these cells was p38α much lower dose of SB203580 (1 μM) could be employed as the compound has a much greater inhibitory potency against p38 compared to JNK.
Thus we have shown that upon continuous GnRH ligand stimulation of either JEG-3 or BPH-1 there is a retardation of cell growth, however we were interested as to whether there was any genuine induction of cellular apoptosis recently reported to occur in several tumour cell lines (Soon et al (2002) J. Clin. Endocrinol. Metab. 87, 4580-4586). […] Initially we measured the effects of GnRH stimulation upon the ultrastructural integrity of the cells plasma membrane. A well documented early event in apoptosis is a reversal in the polarity of many plasma membrane molecules such as phosphatidylserine (PS). At an early stage of cellular apoptosis there is a significant translocation of PS from the inner to the outer envelope of the plasma membrane. […]

[3] = test system: BPH-1 cells; test: Annexin V-FITC staining of extracellular phosphatidylserine (apoptosis) in BPH-1 cells; type: cell-based, human; conditions: 48 h
Procedure: All twelve panels depict either phase contrast (1, 4, 7, 10), confocal laser microscope (2, 5, 8, 11) or phase contrast/confocal merged images (3, 6, 9, 12). Panels 1 to 3 depict untreated control JEG-3 cells for cells in panels 4 to 6 which have been treated with GnRH I (100 nM) for 24 h. All cells have been exposed while live to an annexin V recombinant protein conjugated to the FITC fluorophore. The annexin V will bind specifically only to phosphatidlyserine (PS) lipids usually only expressed on the intracellular side of the plasma membrane lipid bilayer. An early sign of apoptosis is the translocation of these PS lipids from the intracellular side of the membrane to the outer aspect of the bilayer. […] The cellular levels of caspase 3 and procaspase 3 were assessed by specific immunoblotting of JEG-3 or BPH-1 whole cell (w-c) lysates from cells stimulated continuously with GnRH I for the times depicted. […]
Thus we have shown that upon continuous GnRH ligand stimulation of either JEG-3 or BPH-1 there is a retardation of cell growth, however we were interested as to whether there was any genuine induction of cellular apoptosis recently reported to occur in several tumour cell lines (Soon et al (2002) J. Clin. Endocrinol. Metab. 87, 4580-4586). […] Initially we measured the effects of GnRH stimulation upon the ultrastructural integrity of the cells plasma membrane. […]

Ac-D-Nal(2)-D-4-ClPhe-D-Pal-Ser-1-MePal-D-IsopropylLys-Leu-IsopropylLys-Pro-D-AlaNH2 [Ant 135-25]
agonistic activity: liberated inositol phosphates at marmoset Type II GnRH receptor [1]: do not cause any liberation of free inositol phosphates | agonistic activity: liberated inositol phosphates at marmoset Type II GnRH receptor ([1]; listed as 135-25): no IPn-generating capacity | agonistic activity: liberated inositol phosphates at marmoset Type II GnRH receptor ([1]; listed as Ant135-25): no partial activity at all; also recorded: fails to show any agonistic activity at the Type II marmoset GnRHR | agonistic activity: liberated inositol phosphates at marmoset Type II GnRH receptor ([1]; listed as antagonist 135-25): failed to generate significant free inositol phosphate

GnRH I: Gonadotropin-Releasing Hormone, a decapeptide; the original form of GnRH, re-named GnRH I
extracellular annexin-V-reactive phosphatidylserine ([2]; 24 h): no significant expression of annexin-V-reactive PS on the extracellular surface of the plasma membrane | extracellular annexin-V-reactive phosphatidylserine ([2]; 48 h): significant expression of extracellular annexin-V-reactive PS; also recorded: cells begin to become anti-annexin V-FITC immunoreactive; also recorded: considerable amount of external membrane annexin-V-reactive PS | extracellular annexin-V-reactive phosphatidylserine [3]: Identical results; also recorded: significant induction of annexin-V-FITC reactivity on the outer plasma membrane envelope

Ac-D-Nal(2)-D-4-ClPhe-D-Pal-Ser-Ile-D-IsopropylLys-Leu-IsopropylLys-Pro-D -AlaNH2 [Ant 135-18]
agonistic activity: liberated inositol phosphates at marmoset Type II GnRH receptor [1]: considerable partial agonistic activity; also recorded: dose-dependent agonistic activity | agonistic activity: liberated inositol phosphates at marmoset Type II GnRH receptor ([1]; listed as 135-18): only the Type II receptor was activated by 135-18

C[S+]([O-])c1ccc(-c2nc(-c3ccncc3)c(-c3ccc(F)cc3)[nH]2)cc1 (centres unmarked) [SB203580]
effect on GnRH I-induced annexin V-FITC staining (pro-apoptotic state) ([2]; 20 μM SB203580 with 100 nM GnRH I, 48 h): significant reduction in extent of cells entering a pro-apoptotic state; also recorded: significant reduction in the degree of annexin-V-FITC staining | effect on GnRH I-induced annexin V-FITC staining (pro-apoptotic state) ([3]; 1 μM SB203580 with GnRH I): prevented GnRH from inducing a pro-apoptotic state in the BPH-1 cells; also recorded: almost completely abrogated
